Test results as given in ChEMBL document CHEMBL4706577, “Design, synthesis, antitrypanosomal activity, DNA/RNA binding and in vitro ADME profiling of novel imidazoline-substituted 2-arylbenzimidazoles” (Eur J Med Chem, 2020).
The source made the active and inactive calls. The rule behind the calls is not given here.

What was measured:
[1] = system: Trypanosoma brucei brucei; test: Antitrypanosomal activity against bloodstream form of Trypanosoma brucei brucei 221 assessed as parasite growth inhibition at 100 ug/ml incubated for 48 hrs by resazurin staining based assay relative to control; type: functional
[2] = Apparent permeability across apical to basolateral side in dog MDCK-MDR1 cells incubated for 60 mins by LC-MS/MS analysis; type: ADME, cell-based, Canis lupus familiaris
[3] = system: Trypanosoma brucei brucei; test: Antitrypanosomal activity against bloodstream form of Trypanosoma brucei brucei 221 assessed as parasite growth inhibition at 1 ug/ml incubated for 48 hrs by resazurin staining based assay relative to control; type: functional
L6 = test: Cytotoxicity against rat L6 cells incubated for 6 days by resazurin dye based assay; type: cell-based; conditions: L6, 144 h
[4] = system: Poly(dA-dU)oligonucleotide; test: Binding affinity to poly A-poly U (unknown origin) assessed as binding constant by fluorescence spectra analysis; type: nucleic-acid assay
Calf thymus DNA [5] = test: Binding affinity to calf thymus DNA assessed as thermal stability by measuring melting temperature by spectrophotometric method; type: nucleic-acid assay; conditions: Bos taurus
dsDNA = test: Binding affinity to minor groove of ds-DNA (unknown origin) assessed as positive ICD band by CD spectroscopy; type: nucleic-acid assay
[6] = system: Trypanosoma brucei brucei; test: Antitrypanosomal activity against bloodstream form of Trypanosoma brucei brucei 221 assessed as parasite growth inhibition incubated for 48 hrs by resazurin staining based assay; type: functional, organism-based; conditions: for IC50: Trypanosoma brucei, 221, 48 h; for IC90: Trypanosoma brucei, 221, time 48 hrs
Calf thymus DNA [7] = test: Binding affinity to calf thymus DNA assessed as binding constant by fluorescence spectra analysis; type: nucleic-acid assay; conditions: Bos taurus
[8] = Selectivity index, ratio of IC50 for rat L6 cells to IC50 for Trypanosoma brucei brucei 221; type: toxicity; conditions: read-out: Ratio IC50
[9] = system: Poly(dA-dT)oligonucleotide; test: Binding affinity to poly (dA-dT)2 (unknown origin) assessed as thermal stability by measuring melting temperature by spectrophotometric method; type: nucleic-acid assay
[10] = system: Trypanosoma brucei brucei; test: Potency index, ratio of nifurtimox IC50 to compound IC50 for antitrypanosomal activity against blood stream form of Trypanosoma brucei brucei 221; type: functional
[11] = system: Poly(dA-dT)oligonucleotide; test: Binding affinity to p(dAdT)2 (unknown origin) assessed as binding constant by fluorescence spectra analysis; type: nucleic-acid assay
RNA = test: Binding affinity to major groove of ds-RNA (unknown origin) assessed as positive ICD band by CD spectroscopy; type: nucleic-acid assay
[12] = Efflux ratio of apparent permeability from basolateral to apical side over apical to basolateral side in MDCK-MDR1 cells; type: ADME, cell-based, Canis lupus familiaris; conditions: dog
[13] = system: Poly(dA-dU)oligonucleotide; test: Binding affinity to poly A-poly U (unknown origin) assessed as thermal stability by measuring melting temperature by spectrophotometric method; type: nucleic-acid assay
[14] = Apparent permeability across basolateral to apical side in dog MDCK-MDR1 cells incubated for 60 mins by LC-MS/MS analysis; type: ADME, cell-based, Canis lupus familiaris
[15] = system: Trypanosoma brucei brucei; test: Antitrypanosomal activity against bloodstream form of Trypanosoma brucei brucei 221 assessed as parasite growth inhibition at 10 ug/ml incubated for 48 hrs by resazurin staining based assay relative to control; type: functional
[16] = system: Poly(dG-dC)oligonucleotide; test: Binding affinity to p(dGdC)2 (unknown origin) assessed as binding constant by fluorescence spectra analysis; type: nucleic-acid assay
[17] = system: Trypanosoma brucei brucei; test: Antitrypanosomal activity against bloodstream form of Trypanosoma brucei brucei assessed as parasite growth inhibition incubated for 3 days by alamar blue staining based assay; conditions: 72 h

SMILES	Papp A→B at 1 h [2]	efflux ratio [12]	Papp B→A at 1 h [14]	inhibition at 100 µg/mL [1]	further results
COc1cc(-c2nc3cc(C4=NCCN4)ccc3[nH]2)ccc1OCC(=O)c1ccccc1.Cl	< 0.1 ×10⁻⁶ cm/s	–	–	100%	–
CCN(CC)CCOc1ccc(-c2nc3cc(C4=NCCN4)ccc3[nH]2)cc1OC.Cl.Cl	< 0.1 ×10⁻⁶ cm/s	> 5	0.5 ×10⁻⁶ cm/s	100%	inhibition at 1 µg/mL [3]: > 90%; IC50 (L6): > 250 µM; log Ks [4]: 5.4; ΔTm (Calf thymus DNA [5]): 7.2 °C; Activity (dsDNA): Active; IC50 [6]: 0.71 µM; IC90 [6]: 1.47 µM; log Ks (Calf thymus DNA [7]): 6.8; selectivity ratio [8]: > 350; ΔTm [9]: 19.3 °C; Ratio IC50 [10]: >2; log Ks [11]: 7.1; Activity (RNA): Active; ΔTm [13]: 2.3 °C
Cl.O=C(COc1ccc(-c2nc3cc(C4=NCCN4)ccc3[nH]2)cc1)c1ccccc1	< 0.1 ×10⁻⁶ cm/s	–	0.11 ×10⁻⁶ cm/s	100%	–
Cl.Cl.O=C(COc1ccc(-c2nc3cc(C4=NCCN4)ccc3[nH]2)cc1F)N1CCOCC1	0.86 ×10⁻⁶ cm/s	1.16	0.99 ×10⁻⁶ cm/s	100%	–
Cl.Cl.O=C(COc1ccc(-c2nc3cc(C4=NCCN4)ccc3[nH]2)cc1)N1CCOCC1	1.06 ×10⁻⁶ cm/s	1.44	1.53 ×10⁻⁶ cm/s	100%	–
Cl.c1cc(-c2nc3cc(C4=NCCN4)ccc3[nH]2)ccc1OCc1c[nH]nn1	0.46 ×10⁻⁶ cm/s	1.81	0.84 ×10⁻⁶ cm/s	100%	inhibition at 1 µg/mL [3]: > 90%; IC50 [6]: > 4 µM
COc1cc(-c2nc3cc(C4=NCCN4)ccc3[nH]2)ccc1OCCN1CCOCC1.Cl.Cl	0.64 ×10⁻⁶ cm/s	1.04	0.67 ×10⁻⁶ cm/s	100%	–
CCN(CC)CCOc1ccc(-c2nc3cc(C4=NCCN4)ccc3[nH]2)cc1.Cl.Cl	0.27 ×10⁻⁶ cm/s	2.38	0.63 ×10⁻⁶ cm/s	100%	inhibition at 1 µg/mL [3]: > 90%; IC50 (L6): > 250 µM; log Ks [4]: 5.1; ΔTm (Calf thymus DNA [5]): 6.4 °C; Activity (dsDNA): Active; IC50 [6]: 0.47 µM; IC90 [6]: 1.82 µM; log Ks (Calf thymus DNA [7]): 5.9; selectivity ratio [8]: > 530; log Ks [16]: 5.3; ΔTm [9]: 17.9 °C; Ratio IC50 [10]: >2; log Ks [11]: 5.2; Activity (RNA): Active; ΔTm [13]: 4.5 °C
Cl.Cl.Fc1cc(-c2nc3cc(C4=NCCN4)ccc3[nH]2)ccc1OCc1cn(CCN2CCOCC2)nn1	0.49 ×10⁻⁶ cm/s	1.64	0.8 ×10⁻⁶ cm/s	100%	IC50 [6]: > 4 µM
COc1cc(-c2nc3cc(C4=NCCN4)ccc3[nH]2)ccc1OCC(=O)N1CCOCC1.Cl.Cl	1.76 ×10⁻⁶ cm/s	0.78	1.38 ×10⁻⁶ cm/s	100%	–
Cl.Cl.c1cc(-c2nc3cc(C4=NCCN4)ccc3[nH]2)ccc1OCc1cn(CCN2CCOCC2)nn1	1.09 ×10⁻⁶ cm/s	1.09	1.18 ×10⁻⁶ cm/s	100%	inhibition at 1 µg/mL [3]: > 90%; IC50 [6]: > 4 µM
COc1cc(-c2nc3cc(C4=NCCN4)ccc3[nH]2)ccc1OCc1cn(CCN2CCOCC2)nn1.Cl.Cl	0.48 ×10⁻⁶ cm/s	1.86	0.89 ×10⁻⁶ cm/s	100%	–
Cl.c1cc(-c2nc3cc(C4=NCCN4)ccc3[nH]2)ccc1OCCN1CCOCC1	0.49 ×10⁻⁶ cm/s	1.4	0.69 ×10⁻⁶ cm/s	100%	–
CC1CS(=O)(=O)CCN1/N=C/c1ccc([N+](=O)[O-])o1 (stereo not given) [NIFURTIMOX]	–	–	–	–	IC50 [17]: 2 µM
Cl.Cl.Fc1cc(-c2nc3cc(C4=NCCN4)ccc3[nH]2)ccc1OCCN1CCOCC1	0.49 ×10⁻⁶ cm/s	1.7	0.84 ×10⁻⁶ cm/s	100%	–

Now from value to compound, other results behind:

Papp A→B at 1 h [2]	efflux ratio [12]	Papp B→A at 1 h [14]	SMILES	inhibition at 100 µg/mL [1]	further results
< 0.1 ×10⁻⁶ cm/s	> 2.4	0.2 ×10⁻⁶ cm/s	Cl.Fc1cc(-c2nc3cc(C4=NCCN4)ccc3[nH]2)ccc1OCc1ccccn1	100%	inhibition at 10 µg/mL [15]: 40%
< 0.1 ×10⁻⁶ cm/s	–	< 0.1 ×10⁻⁶ cm/s	COc1cc(-c2nc3cc(C4=NCCN4)ccc3[nH]2)ccc1OCc1cn(Cc2ccccc2)nn1.Cl	100%	–
< 0.1 ×10⁻⁶ cm/s	–	0.09 ×10⁻⁶ cm/s	Cl.Fc1cc(-c2nc3cc(C4=NCCN4)ccc3[nH]2)ccc1OCc1cn(Cc2ccccc2)nn1	100%	–
< 0.1 ×10⁻⁶ cm/s	–	< 0.1 ×10⁻⁶ cm/s	Cl.O=C(COc1ccc(-c2nc3cc(C4=NCCN4)ccc3[nH]2)cc1F)c1ccccc1	100%	–
0.12 ×10⁻⁶ cm/s	4.22	0.52 ×10⁻⁶ cm/s	COc1cc(-c2nc3cc(C4=NCCN4)ccc3[nH]2)ccc1OCc1ccccn1.Cl	100%	–
0.07 ×10⁻⁶ cm/s	7.82	0.51 ×10⁻⁶ cm/s	Cl.c1ccc(COc2ccc(-c3nc4cc(C5=NCCN5)ccc4[nH]3)cc2)nc1	100%	–
0.17 ×10⁻⁶ cm/s	2.92	0.49 ×10⁻⁶ cm/s	CCN(CC)CCOc1ccc(-c2nc3cc(C4=NCCN4)ccc3[nH]2)cc1F.Cl.Cl	100%	inhibition at 1 µg/mL [3]: > 90%; IC50 (L6): > 250 µM; log Ks [4]: 4.9; ΔTm (Calf thymus DNA [5]): 4.5 °C; IC50 [6]: 3.67 µM; log Ks (Calf thymus DNA [7]): 6; selectivity ratio [8]: > 68; log Ks [16]: 4.5; ΔTm [9]: 14.7 °C; log Ks [11]: 6.4; ΔTm [13]: 2.4 °C
